Experimental data as given in US9145415B2, “Nitrogen-containing heterocyclic compound or salt thereof” (FUJIFILM Corporation, priority 2012, dated 2015).
pIC50: −log10 of the molar value. Read-outs that look alike come from different tables or passages of the source.

Key:
MV4-11 cells = assay: Leukemia cell proliferation inhibition test (ATPlite), MV4-11; format: cell-based; settings: Homo sapiens, read-out: MV4-11 cell proliferation inhibition effect
Procedure: (§1) A leukemia cell proliferation inhibition test was performed for the compounds of the present invention by using the leukemia cell strains MV4-11 (ATCC Number, CRL-9591) and Molm-13 (DSMZ Number, ACC554).
(§2) The leukemia cell proliferation inhibition test was performed by the method described below.
(§3) For the purpose of measuring proliferation inhibition attained with a compound, the total cell count was quantified on the basis of the total cellular ATP concentration using the ATPlite (PerkinElmer) reagent utilizing firefly luciferase. The Molm-13 or MV4-11 cells were added to the RPMI medium containing penicillin and streptomycin (penn/strep) and 10% FBS at a density of 2×10^5 cells/ml, and 50 μL (10,000 cells) of the cell suspension was inoculated to each well of a 96-well plate (Corning).
(§4) A serially diluted solution of a compound or 0.1% DMSO (solvent control) in a volume of 50 μL was added to the cells, and then the cells were cultured for 72 hours under the standard cell proliferation conditions (37° C., 5% CO2) to allow proliferation of the cells. In order to measure the proliferation of the total cells, equal volume of the ATPlite reaction mixture was added to each well in accordance with the instructions attached to ATPlite, and then luminescence count of the well was measured (relative light unit, RLU).
(§5) The RLU signal observed with the DMSO solvent control after 72 hours of the culture was defined as a signal indicating 0% inhibition, and the GI50 value for the proliferation inhibition corresponds to a concentration of a compound that provides 50% inhibition based on the proliferation of the total cells contained in the DMSO solvent control. Each data point was obtained from samples in duplicate. The GI50 values were calculated by the non-linear regression fitting (Fit Model (205)) according to a sigmoid dose-reaction equation using the XLfit software.

Molm-13 cells = assay: Leukemia cell proliferation inhibition test (ATPlite), Molm-13; format: cell-based; settings: Homo sapiens, read-out: MOLM13 cell proliferation inhibition effect
Procedure: as §1, §2, §3, §4, §5

[1] = target: T1, human FLT3 protein (FLT3 (WT)) (Homo sapiens, UniProt P36888); assay: FLT3 inhibition test (FLT3 enzyme inhibition, time-resolved fluorescence of substrate peptide phosphorylation); format: biochemical; settings: read-out: FLT3 (WT) enzyme inhibition activity
T1 construct: human FLT3 protein (intracellular region, 564 to 993 aa); GST; purchased Carna Biosciences; host or cells: baculovirus expression system
T1 sequence (P36888 564-993): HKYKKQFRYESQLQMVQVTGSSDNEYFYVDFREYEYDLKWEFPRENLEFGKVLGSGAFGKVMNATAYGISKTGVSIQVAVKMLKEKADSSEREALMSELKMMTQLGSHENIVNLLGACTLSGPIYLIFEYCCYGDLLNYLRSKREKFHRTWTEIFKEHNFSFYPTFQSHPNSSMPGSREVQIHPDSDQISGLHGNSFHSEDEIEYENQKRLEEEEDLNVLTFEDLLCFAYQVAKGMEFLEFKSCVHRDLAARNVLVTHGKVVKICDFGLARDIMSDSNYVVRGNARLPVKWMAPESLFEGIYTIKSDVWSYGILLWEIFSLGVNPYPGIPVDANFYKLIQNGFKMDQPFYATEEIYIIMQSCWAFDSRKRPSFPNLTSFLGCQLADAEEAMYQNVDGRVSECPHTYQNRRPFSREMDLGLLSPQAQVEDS
Procedure: The FLT3 inhibition test was performed for the compounds of the present invention by the method described below.
A reaction mixture in a volume of 9 μL containing the FLT3 protein and a test compound of a predetermined concentration (1.2 μg of FLT3, 100 mM HEPES, 10 mM MgCl2, 25 mM NaCl, 0.01% BSA, 1 mM DTT, pH 7.5) was left standing at 25° C. for 15 minutes. […] (Toray Industries), and 3 μL (final concentration 50 μM) of ATP (Sigma-Aldrich) were added to the reaction mixture, and the mixture was shaken for 2 minutes, and then further left standing at 25° C. for 30 minutes to allow the enzymatic reaction.

[2] = MV4-11, 72 h, MV4-11, 72 hours culture, ATPlite, GI50 per method
[3] = MOLM-13, 72 h, Molm-13, 72 hours culture, ATPlite, GI50 per method
[4] = GST-fused human FLT3 (564 to 993 aa), ATP 50 μM

Row | Compound | pIC50 (MV4-11 cells; MV4-11, MV4-11 cell) | pIC50 (Molm-13 cells; MOLM-13, MOLM13 cell) | pIC50 ([1]; FLT3 (WT)) | pIC50 (MV4-11 cells; [2]) | pIC50 (Molm-13 cells; [3]) | pIC50 [1, 4]
1 | CCCNc1nc(Nc2ccc(-n3nccn3)cc2)ncc1C#CCCCNC(=O)[C@H](C)N(C)C(=O)/C=C/CN(C)C [Compound 22-16] | 7.00 to 8.00 | 7.00 to 8.00 | 7.00 to 8.00 | – | – | –
2 | CCCNc1nc(Nc2cccc(C#N)c2)ncc1C(=O)Nc1cccc(NC(=O)[C@H](C)N(C)C(=O)/C=C/CN(C)C)c1 [Compound 6-3, (S,E)-2-((3-cyanophenyl)amino)-N-(3-(2-(4-(dimethylamino)-N-methyl-2-butenamido)propanamido)phenyl)-4-(propylamino)pyrimidine-5-carboxamide] | – | – | – | 7.00 to 8.00 | 7.00 to 8.00 | > 8.00
3 | C[C@@H](C(=O)NCCCC#Cc1cnc(Nc2ccc(C(N)=O)cc2)nc1N1CCCC1)N(C)C(=O)/C=C/CN(C)C [Compound 9-7] | – | – | – | > 8.00 | > 8.00 | > 8.00
4 | C=CC(=O)NCC(=O)N(C)c1cccc(NC(=O)c2cnc(NCCc3ccncc3)nc2NCCC)c1 [Compound 1-5] | – | – | – | 7.00 to 8.00 | 7.00 to 8.00 | 7.00 to 8.00
5 | CCCNc1nc(Nc2ccc3[nH]ncc3c2)ncc1C#CCCCNC(=O)[C@H](C)N(C)C(=O)/C=C/CN(C)C [Compound 21-55] | > 8.00 | > 8.00 | > 8.00 | – | – | –
6 | CCCCCN(CC(=O)NCCCC#Cc1cnc(Nc2ccc(C#N)cc2)nc1NCCC)C(=O)/C=C/CN(C)C [Compound 7-71] | – | – | – | > 8.00 | > 8.00 | > 8.00
7 | CCCNc1nc(Nc2ccc3cnn(CCOC)c3c2)ncc1C#CCCCNC(=O)[C@@H]1CCCN1C(=O)/C=C/CN(C)C [Compound 22-33] | > 8.00 | > 8.00 | > 8.00 | – | – | –
8 | CCCNc1nc(NCCc2ccncc2)ncc1C(=O)Nc1cccc(NC(=O)CNC(=O)/C=C/CN2CCN(C)CC2)c1 [Compound 2-14] | – | – | – | 7.00 to 8.00 | 7.00 to 8.00 | > 8.00
9 | CCCNc1nc(Nc2ccc3c(cnn3C)c2)ncc1C#CCCCNC(=O)[C@@H]1CCCN1C(=O)/C=C/CN(C)C [Compound 22-31, (S,E)-1-(4-(Dimethylamino)-2-butenoyl)-N-(5-(2-((1-methyl-1H-indazol-5-yl)amino)-4-(propylamino)pyrimidin-5-yl)-4-pentyn-1-yl)pyrrolidine-2-carboxamide] | > 8.00 | > 8.00 | > 8.00 | – | – | –
10 | CCOc1nc(Nc2cccc(F)c2)ncc1C#C[C@@H]1CCC[C@H](NC(=O)[C@H](C)N(C)C(=O)/C=C/CN(C)C)C1 [Compound 21-19] | – | – | – | > 8.00 | > 8.00 | > 8.00
11 | CCCNc1nc(Nc2ccc(C#N)cc2)ncc1C#C[C@@H]1CCC[C@H](NC(=O)CN(C)C(=O)/C=C/CN(C)C)C1 [Compound 13-6] | – | – | – | > 8.00 | > 8.00 | > 8.00
12 | CCNc1nc(Nc2ccc3cn[nH]c3c2)ncc1C#CCCCNC(=O)[C@H](C)N(C)C(=O)/C=C/CN(C)C [Compound 10-64] | – | – | – | > 8.00 | > 8.00 | > 8.00
13 | CCCNc1nc(Nc2cccc(F)c2)ncc1C#Cc1cc(NC(=O)[C@H](C)N(C)C(=O)/C=C/CN(C)C)ccc1F [Compound 8-7] | – | – | – | > 8.00 | 7.00 to 8.00 | > 8.00
14 | CCCN(c1nc(Nc2ccnc(F)c2)ncc1C#CCCCNC(=O)[C@H](C)N(C)C(=O)/C=C/CN(C)C)C1CC1 [Compound 9-14] | – | – | – | > 8.00 | > 8.00 | > 8.00
15 | CCCOc1nc(Nc2ccc(C#N)cc2)ncc1C#C[C@@H]1CCC[C@H](NC(=O)[C@H](C)N(C)C(=O)/C=C/CN(C)C)C1 [Compound 21-13] | – | – | – | > 8.00 | > 8.00 | > 8.00
16 | CCCNc1nc(Nc2cnc3c(c2)c(C)nn3CCOC)ncc1C#CCCCNC(=O)[C@H](C)N(C)C(=O)/C=C/CN(C)C [Compound 22-41] | > 8.00 | > 8.00 | > 8.00 | – | – | –
17 | CCCNc1nc(Nc2cnc3ccc(OC)cc3c2)ncc1C#CCCCNC(=O)[C@H](C)N(C)C(=O)/C=C/CN(C)C [Compound 21-16] | – | – | – | > 8.00 | > 8.00 | > 8.00
18 | CNc1ncc(C#C[C@@H]2CCC[C@H](NC(=O)[C@H](C)N(C)C(=O)/C=C/CN(C)C)C2)c(Nc2ccc(OC)cc2)n1 [Compound 21-36] | > 8.00 | > 8.00 | > 8.00 | – | – | –
19 | CCCNc1nc(Nc2cncc(F)c2)ncc1C#CC(C)(C)CCNC(=O)[C@H](C)N(C)C(=O)/C=C/CN(C)C [Compound 9-21] | – | – | – | > 8.00 | 7.00 to 8.00 | > 8.00
20 | CCCNc1nc(Nc2ccc(C#N)cc2)ncc1C#CCCCNC(=O)CN(C(=O)/C=C/CN(C)C)C(C)C [Compound 7-40] | – | – | – | > 8.00 | > 8.00 | > 8.00
21 | CNc1nc(Nc2ccc(F)cc2)ncc1C#C[C@H]1C[C@@H](NC(=O)[C@H](C)N(C)C(=O)/C=C/CN(C)C)C1 [Compound 13-19, (E)-4-(Dimethylamino)-N—((S)-1-(((1S,3R)-3-((2-((4-fluorophenyl)amino)-4-(methylamino)pyrimidin-5-yl)ethynyl)cyclobutyl)amino)-1-oxopropan-2-yl)-N-methyl-2-butenamide] | – | – | – | > 8.00 | > 8.00 | > 8.00
22 | CC[C@@H](C(=O)NCCCC#Cc1cnc(Nc2ccc(F)cc2)nc1Nc1ccc(OC)nc1)N(C)C(=O)/C=C/CN(C)C [Compound 10-39] | – | – | – | > 8.00 | > 8.00 | > 8.00
23 | C[C@@H](C(=O)NCCCC#Cc1cnc(Nc2ccc3c(cnn3C)c2)nc1NC1CC1)N(C)C(=O)/C=C/CN(C)C [Compound 10-54] | – | – | – | > 8.00 | > 8.00 | > 8.00
24 | CCCNc1nc(Nc2ccc3c(OC)nn(CCOC)c3c2)ncc1C#CCCCNC(=O)[C@@H]1CCCN1C(=O)/C=C/CN(C)C [Compound 22-55] | > 8.00 | > 8.00 | > 8.00 | – | – | –
25 | CCCNc1nc(Nc2cccc(F)c2)ncc1C(=O)Nc1cccc(NC(=O)[C@H](C)N(C)C(=O)/C=C/CN(C)C)c1 [Compound 6-4, (S,E)-N-(3-(2-(4-(dimethylamino)-N-methyl-2-butenamido)propanamido)phenyl)-2-((3-fluorophenyl)amino)-4-(propylamino)pyrimidine-5-carboxamide] | – | – | – | > 8.00 | > 8.00 | > 8.00
26 | C[C@@H](C(=O)NCCCC#Cc1cnc(Nc2ccc(C#N)cc2)nc1N1CCCC1)N(C)C(=O)/C=C/CN(C)C [Compound 9-1, (S,E)-N-(1-((5-(2-((4-cyanophenyl)amino)-4-(pyrrolidin-1-yl)pyrimidin-5-yl)-4-pentyn-1-yl)amino)-1-oxopropan-2-yl)-4-(dimethylamino)-N-methyl-2-butenamide] | – | – | – | > 8.00 | > 8.00 | > 8.00
27 | CNc1nc(Nc2ccc(F)cc2)ncc1C#CCCCNC(=O)CN(C)C(=O)/C=C/CN(C)C [Compound 7-89] | – | – | – | > 8.00 | > 8.00 | > 8.00
28 | CCCNc1nc(Nc2ccc(C#N)cc2)ncc1C#C[C@@H]1CCC[C@H](NC(=O)[C@H](C)N(C)C(=O)/C=C/CN(C)C)C1 [Compound 13-4] | – | – | – | > 8.00 | > 8.00 | > 8.00
